Measurements from PubChem BioAssay AID602156 (GNF / Scripps Winzeler lab, 2011).
Activity calls are given as the source filed them. How the calls were made is not given here.

Tested on: P. yoelii liver stage in HepG2-A16-CD81EGFP, imaging
Assay: Plasmodium liver-stage growth inhibition, dose response, imaging, Malaria Box, P. yoelii, HepG2-A16-CD81EGFP (AID 602156);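 further: infected cells exposed to compound for 48 hours before fixation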

Compound | IC50
Fc1ccc(Nc2nc(NCc3ccco3)c3ccccc3n2)cc1 | 74.9 nM
Oc1cccc2ccc[n+](CC(O)Cn3c4ccccc4c4ccccc43)c12 (stereo not drawn) | 311 nM
CCOC(=O)c1ccc(NC(=O)CSc2nc(NCc3ccccc3)c3ccccc3n2)cc1 | 38.1 nM
COc1cc(OC)c(NC(=O)C2c3ccccc3C(=O)N(C)C2c2ccc(OC)c(OC)c2)cc1Cl (stereo not drawn) | > 9130 nM (inactive)
O=c1c2ccccc2[nH]c2ccc(I)cc12 | 105 nM
N#Cc1c2c(c(N3CCN(c4ccccn4)CC3)n3c1nc1ccccc13)CCC2 | > 10000 nM (inactive)
CCCC(=O)N1CCN(c2nc(Cc3ccccc3)c3c(c2C#N)CC(C)(C)OC3)CC1 | 348 nM
COc1ccc(C2CC(=O)C3=C(C2)NC(C)=C(C(=O)OC2CCCC2)C3c2cccc(C)c2)cc1OC (stereo not drawn) | 779 nM
CC(C)NC(=O)c1cc(NC(=O)c2cccs2)ccc1N1CCc2ccccc2C1 | 74.8 nM
CCN1/C(=C/c2ccc3ccccc3[n+]2CC)Sc2sc3ccccc3c21 | 6.21 nM
CC[n+]1c(/C=C/N(C)c2ccccc2)n(-c2ccccc2)c2ccc(-c3nc4ccccc4s3)cc21 | 14 nM
O=[N+]([O-])c1ccc(N2CCCN(C(=S)Nc3ccc(F)cc3Br)CC2)nc1 | 4620 nM
N#CC1=C(N)Oc2c3c(c4ccccc4c2C1c1ccc(F)cc1)C(c1ccc(F)cc1)C(C#N)=C(N)O3 (stereo not drawn) | 3930 nM
O=C(Cc1ccccc1)NC(c1ccc(Cl)cc1)c1ccc2cccnc2c1O (stereo not drawn) | 190 nM
CCCCCCN(C(=O)c1ccc(C(C)(C)C)cc1)C(CC)c1nc2ccccc2c(=O)n1-c1ccc(F)cc1 (stereo not drawn) | > 6910 nM (inactive)
CC(C)CC(N)C(=O)N1CCn2c(nc(-c3ccccc3)c2Nc2ccc3c(c2)OCO3)C1 (stereo not drawn) | 186 nM
S=C(NN=Cc1ccccn1)NC1CC2CC1C1C=CCC21 (stereo not drawn) | 25.6 nM
COc1ccccc1CNC(=O)c1nn(-c2ccc(Cl)cc2)c(=O)c2ccccc12 | > 10000 nM (inactive)
COc1ccc(-c2c(C(F)(F)F)nn(C)c2NC(=O)Nc2ccc(F)cc2F)cc1 | 3450 nM
CCC(/C=C1\Sc2ccc(OC)cc2N1CCCS(=O)(=O)O)=C\c1sc2ccc(OC)cc2[n+]1CCCS(=O)(=O)O | 11.2 nM
Cc1c(Cl)cccc1N1C(=O)C2C3c4ccccc4C(c4ccccc43)C2C1=O (stereo not drawn) | > 10000 nM (inactive)
COc1cccc(N2C(N)=NC(N)=NC2(C)C)c1 | 29.5 nM
CCOC(=O)c1c(NC(C)=O)sc2c1CCN(C(C)C)C2 | 3010 nM
Fc1ccccc1Nc1nc(NCc2ccccc2)c2ccccc2n1 | 690 nM
COc1ccc2nc(SCC(=O)Nc3cccc(NC(=O)CSc4nc5ccc(OC)cc5[nH]4)n3)[nH]c2c1 | > 9290 nM (inactive)
Cc1ccc(OCC(=O)Nc2cccc(-c3nc4ncccc4o3)c2)cc1C | > 10000 nM (inactive)
CCCc1ccc(C(=O)NC(=O)c2ccccc2O)cc1 | 4.18 nM

Compound | IC50
OCCNc1nc(Nc2ccc(F)cc2)nc2ccccc12 | 136 nM
CC(=O)N(C)C1=C(N2CCCC2)C(=O)c2ccccc2C1=O | 4950 nM
CCCCN(CC)CCNC(=O)C1c2ccccc2C(=O)N(Cc2ccc(F)cc2)C1c1ccc(OC)cc1 (stereo not drawn) | 89.1 nM
CC(C)(C)OC(=O)N1CCC(c2c(C(=O)Nc3cccc(C(F)(F)F)c3)cnn2-c2ccc(F)cc2F)CC1 | 3120 nM
FC(F)(F)c1ccccc1NC(=S)N1CCCN(c2nc3ccc(Cl)cc3s2)CC1 | 1620 nM
c1ccc(OCCOc2ccc(Nc3c4ccccc4nc4ccccc34)cc2)cc1 | 559 nM
Cc1ccnc(NC(c2ccc3ccccc3c2)c2ccc3cccnc3c2O)c1 (stereo not drawn) | 556 nM
CCOC(=O)C1=C(c2ccccc2)N=c2sc(=Cc3cc(C)n(-c4ccc(F)cc4)c3C)c(=O)n2C1c1cccc(OC)c1OC (stereo not drawn) | 2450 nM
CCCCc1c(C)[nH]c2c(OC)cccc2c1=O | 561 nM
CCCCCCCc1cc(O)c2c3c(c(=O)oc2c1)CCC(C)C3 (stereo not drawn) | 247 nM
O=C(NC1CC1)c1ccc(CSCc2ccccc2Cl)o1 | 140 nM
O=[N+]([O-])c1cccc(C(Nc2nccs2)c2ccc3cccnc3c2O)c1 (stereo not drawn) | 358 nM
Cn1cnnc1SCC(=O)Nc1ccccc1C(F)(F)F | > 10000 nM (inactive)
O=C(Nc1ccc(Oc2cccc(Oc3ccc(NC(=O)c4ccc(Br)o4)cc3)c2)cc1)c1ccc(Br)o1 | 433 nM
Cc1ccc(-n2c(-c3ccccc3)cc(C=NNC(=O)c3cccc(O)c3)c2-c2ccccc2)cc1 | 20.2 nM
COC(=O)c1ccc(C2C3=C(CC(c4ccco4)CC3=O)Nc3ccccc3N2C(=O)c2ccccc2)cc1 (stereo not drawn) | > 4780 nM (inactive)
CC(=O)N(C1=C(N2CCOCC2)C(=O)c2ccccc2C1=O)c1cccc(Cl)c1 | 744 nM
c1ccc2c(NCCc3cnc[nH]3)c3ccccc3nc2c1 | 706 nM
CCCN[P+](CC(C)C)(NCCC)NCCC | 281 nM
O=C1C(Nc2ccc(O)cc2)=CC(=NS(=O)(=O)c2cccs2)c2ccccc21 | 85.6 nM
Cc1ncc(CCCCN(C)C)c2c1[nH]c1ccccc12 | 2770 nM
O=C(c1cnsn1)N1CCCC(COc2cccc(CN3CCC(Cc4ccccc4)CC3)c2)C1 (stereo not drawn) | 609 nM
C[C@@H]1CCC[C@@H](C[C@H]2Cc3cc(O)cc(O)c3C(=O)O2)O1 | 112 nM
CCCCCCOc1ccc(NC(=O)c2cccs2)cc1 | 139 nM
CC1(C)N=C(N)N=C(N)N1c1ccc(Oc2ccc(Cl)cc2)c(Cl)c1 | 73 nM
O=C(c1ccc([N+](=O)[O-])cc1)c1ccc(Cl)c(Cl)c1 | 1640 nM
